From patent US10308643B2, “Heterocyclic compound” (Takeda Pharmaceutical Company Limited, priority 2015, dated 2019)

Experiments:
Format in all cases: biochemical
HDAC6 enzyme = molecular target: T1, HDAC6 enzyme (Homo sapiens, UniProt Q9UBN7); experiment: HDAC1/6 Enzyme Inhibitory Assay (HDAC-Glo I/II Assay kit), HDAC6; conditions: 1 μM test compound, wells without enzyme = 100% inhibition; for inhibition at 1 µM: read-out: HDAC6 inhibitory rate (%) (1 μM)
T1 construct: transducing full length HDAC1 and HDAC6 genes into Sf-9 insect cells; GST; purchased SignalChem; host or cells: Sf-9 insect cells
T1 sequence (Q9UBN7 1-1215): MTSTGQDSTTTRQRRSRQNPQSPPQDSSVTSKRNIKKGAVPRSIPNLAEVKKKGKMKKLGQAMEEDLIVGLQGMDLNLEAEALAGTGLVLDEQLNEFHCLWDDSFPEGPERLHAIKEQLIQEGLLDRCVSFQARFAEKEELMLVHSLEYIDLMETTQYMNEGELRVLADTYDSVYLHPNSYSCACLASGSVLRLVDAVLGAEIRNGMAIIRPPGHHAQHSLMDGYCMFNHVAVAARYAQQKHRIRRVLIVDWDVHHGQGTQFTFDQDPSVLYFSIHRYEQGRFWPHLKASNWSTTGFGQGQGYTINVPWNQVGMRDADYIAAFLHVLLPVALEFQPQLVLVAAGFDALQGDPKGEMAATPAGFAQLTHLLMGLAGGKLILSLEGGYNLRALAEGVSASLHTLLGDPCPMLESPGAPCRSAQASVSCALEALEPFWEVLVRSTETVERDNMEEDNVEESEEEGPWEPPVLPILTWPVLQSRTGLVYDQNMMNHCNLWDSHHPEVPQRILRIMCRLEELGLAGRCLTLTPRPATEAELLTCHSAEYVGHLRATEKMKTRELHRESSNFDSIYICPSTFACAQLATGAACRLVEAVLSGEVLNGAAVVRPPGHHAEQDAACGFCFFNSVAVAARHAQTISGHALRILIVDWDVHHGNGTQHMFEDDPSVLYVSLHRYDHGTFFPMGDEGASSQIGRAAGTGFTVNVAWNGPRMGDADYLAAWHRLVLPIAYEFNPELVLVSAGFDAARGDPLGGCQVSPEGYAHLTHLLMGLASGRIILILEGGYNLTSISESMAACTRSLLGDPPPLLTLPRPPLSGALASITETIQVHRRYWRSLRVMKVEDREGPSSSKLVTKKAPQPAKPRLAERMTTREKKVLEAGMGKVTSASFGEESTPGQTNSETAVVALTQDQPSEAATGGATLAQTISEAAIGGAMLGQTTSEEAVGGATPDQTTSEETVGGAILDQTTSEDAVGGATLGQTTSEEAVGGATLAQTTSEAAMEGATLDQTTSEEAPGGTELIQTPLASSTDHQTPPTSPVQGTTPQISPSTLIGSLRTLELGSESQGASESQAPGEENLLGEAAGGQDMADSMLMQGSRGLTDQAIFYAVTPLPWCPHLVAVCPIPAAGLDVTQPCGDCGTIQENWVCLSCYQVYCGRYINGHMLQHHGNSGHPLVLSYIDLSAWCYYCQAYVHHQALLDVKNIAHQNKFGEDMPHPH
Protocol: (§1) HDAC1/6 Enzyme Inhibitory Assay
(§2) HDAC1 enzyme and HDAC6 enzyme each prepared by transducing full length HDAC1 and HDAC6 genes into Sf-9 insect cells and purifying by GST affinity column were purchased from SignalChem. Using these enzymes, HDAC1 and/or HDAC6 enzyme inhibitory activities of the compound of the present invention were evaluated. Enzymes were used after preserved at −70° C. HDAC1 or HDAC6 enzyme inhibitory activity of the compound of the present invention was measured using HDAC-Glo™ I/II Assay kit (Promega) according to the following experimental method. The test compound diluted with assay buffer (24 mM Tris-HCl (pH 7.5), 1 mM MgCl2, 0.35 mM KCl, 135 mM NaCl, 0.6 mM Glutathione, 0.01% Tween-20) was added to a 384-well plate by each 2 μL. Then, HDAC1 or HDAC6 enzyme solution diluted with assay buffer was added thereto by each 4 μL, and the plate was incubated at room temperature for 60 min. After incubated, HDAC substrate-Developer solution prepared according to Promega protocol attached to the assay kit was added to the 384-well plate by each 2 μL, and the enzyme reaction was started. After reacting at room temperature for 20 min, luminescence level was measured using plate reader Envision (PerkinElmer). The inhibitory activity of each compound was calculated as a relative activity value when luminescence level in wells without enzyme is considered as 100% inhibition.

HDAC9 enzyme = molecular target: T2, HDAC9 enzyme (Homo sapiens, UniProt Q9UKV0); experiment: HDAC9 Enzyme Inhibitory Assay (HDAC-Glo class IIa); conditions: 1 μM test compound, wells without enzyme = 100% inhibition; for inhibition at 1 µM: read-out: HDAC9 inhibitory rate (%) (1 μM)
T2 construct: transducing full length HDAC9 gene into Sf-9 insect cells; made in house; host or cells: Sf-9 insect cells
Protocol: HDAC9 Enzyme Inhibitory Assay
Enzyme was prepared by transducing full length HDAC9 gene into Sf-9 insect cells and purifying by Ni-NTA affinity column, and HDAC9 enzyme inhibitory activity was evaluated. Enzymes were used after preserved at −70° C. HDAC9 enzyme inhibitory activity of the test compound was measured using HDAC-Glo class IIa (Promega) according to the following experimental method. The test compound diluted with assay buffer (24 mM Tris-HCl (pH 7.5), 1 mM MgCl2, 0.35 mM KCl, 135 mM NaCl, 0.6 mM Glutathione, 0.01% Tween-20) was added to a 384-well plate by each 2 μL. Then, HDAC9 enzyme solution diluted with assay buffer was added thereto by each 2 μL, and the plate was incubated at room temperature for 60 min. After incubated, HDAC substrate-Developer solution prepared according to Promega protocol was added to the 384-well plate by each 4 μL, and the enzyme reaction was started. After reacting at room temperature for 20 min, luminescence level was measured using plate reader Envision (PerkinElmer). The inhibitory activity of each compound was calculated as a relative activity value when luminescence level in wells without enzyme is considered as 100% inhibition.

HDAC1 enzyme = molecular target: T3, HDAC1 enzyme (Homo sapiens, UniProt Q13547); experiment: HDAC1/6 Enzyme Inhibitory Assay (HDAC-Glo I/II Assay kit), HDAC1; conditions: 1 μM test compound, wells without enzyme = 100% inhibition; for inhibition at 1 µM: read-out: HDAC1 inhibitory rate (%) (1 μM)
T3 construct: transducing full length HDAC1 and HDAC6 genes into Sf-9 insect cells; GST; purchased SignalChem; host or cells: Sf-9 insect cells
Protocol: as §1, §2

T2 sequence (Q9UKV0 whole entry, species assumed): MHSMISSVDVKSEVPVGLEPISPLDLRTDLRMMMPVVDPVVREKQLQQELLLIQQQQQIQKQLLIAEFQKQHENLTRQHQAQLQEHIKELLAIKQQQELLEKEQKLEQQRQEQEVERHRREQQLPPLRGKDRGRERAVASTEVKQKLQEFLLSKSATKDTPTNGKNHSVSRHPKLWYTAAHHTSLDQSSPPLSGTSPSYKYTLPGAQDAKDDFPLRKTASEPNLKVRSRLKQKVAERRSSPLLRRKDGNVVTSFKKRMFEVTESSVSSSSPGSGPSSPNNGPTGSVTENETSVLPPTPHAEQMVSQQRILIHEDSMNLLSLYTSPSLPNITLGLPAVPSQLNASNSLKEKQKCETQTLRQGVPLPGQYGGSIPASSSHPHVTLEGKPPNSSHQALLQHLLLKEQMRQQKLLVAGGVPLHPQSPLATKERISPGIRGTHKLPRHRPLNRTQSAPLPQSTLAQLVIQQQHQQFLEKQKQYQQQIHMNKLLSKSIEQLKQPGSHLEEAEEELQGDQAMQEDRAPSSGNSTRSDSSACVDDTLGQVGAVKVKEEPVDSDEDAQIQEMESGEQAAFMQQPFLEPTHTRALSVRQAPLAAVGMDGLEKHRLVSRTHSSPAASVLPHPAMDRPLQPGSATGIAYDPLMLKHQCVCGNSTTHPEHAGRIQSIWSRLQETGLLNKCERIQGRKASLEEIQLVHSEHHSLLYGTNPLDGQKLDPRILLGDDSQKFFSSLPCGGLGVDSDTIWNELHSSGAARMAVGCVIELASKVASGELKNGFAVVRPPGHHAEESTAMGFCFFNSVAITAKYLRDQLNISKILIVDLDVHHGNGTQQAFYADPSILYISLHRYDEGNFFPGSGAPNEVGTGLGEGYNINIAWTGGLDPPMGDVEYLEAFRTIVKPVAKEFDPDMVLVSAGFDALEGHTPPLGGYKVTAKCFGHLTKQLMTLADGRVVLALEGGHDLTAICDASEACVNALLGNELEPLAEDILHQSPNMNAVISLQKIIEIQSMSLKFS
T3 sequence (Q13547 whole entry): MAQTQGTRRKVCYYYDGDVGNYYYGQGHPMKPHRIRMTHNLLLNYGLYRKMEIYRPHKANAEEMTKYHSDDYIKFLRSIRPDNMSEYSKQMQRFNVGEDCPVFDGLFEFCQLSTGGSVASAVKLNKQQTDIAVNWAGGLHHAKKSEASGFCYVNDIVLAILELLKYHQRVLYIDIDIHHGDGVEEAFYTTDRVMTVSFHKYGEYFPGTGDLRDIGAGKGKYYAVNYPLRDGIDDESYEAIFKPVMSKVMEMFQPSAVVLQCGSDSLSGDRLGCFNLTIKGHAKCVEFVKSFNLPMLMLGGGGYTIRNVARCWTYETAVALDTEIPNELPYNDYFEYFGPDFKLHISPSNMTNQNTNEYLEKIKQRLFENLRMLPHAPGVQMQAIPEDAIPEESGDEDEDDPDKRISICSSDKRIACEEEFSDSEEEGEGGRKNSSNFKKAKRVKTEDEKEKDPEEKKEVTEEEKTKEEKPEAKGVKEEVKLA

Row | HDAC6 inhibitory rate (%) (1 μM) (HDAC6 enzyme) | HDAC9 inhibitory rate (%) (1 μM) (HDAC9 enzyme) | HDAC1 inhibitory rate (%) (1 μM) (HDAC1 enzyme) | inhibition at 1 µM (HDAC6 enzyme) | inhibition at 1 µM (HDAC9 enzyme) | inhibition at 1 µM (HDAC1 enzyme) | Compound
1 | 98% | 71% | 10% | – | – | – | O=C1CCCN1[C@@H]1CCOC[C@H]1N1Cc2ccc(-c3noc(C(F)(F)F)n3)cc2C1=O [Example 182, 2-((3S,4R)-4-(2-oxopyrrolidin-1-yl)tetrahydro-2H-pyran-3-yl)-6-(5-(trifluoromethyl)-1,2,4-oxadiazol-3-yl)isoindolin-1-one]
2 | – | – | – | 94% | 99% | 93% | Cc1cc([C@@H]2CNCC[C@H]2N2Cc3ccc(-c4noc(C(F)(F)F)n4)cc3C2=O)ccc1Cl (relative stereo) [Example 57, 2-(trans-3-(4-chloro-3-methylphenyl)piperidin-4-yl)-6-(5-(trifluoromethyl)-1,2,4-oxadiazol-3-yl)isoindolin-1-one]
3 | – | – | – | 82% | 53% | 21% | O=C(N[C@H]1CCCC[C@@H]1N1Cc2ccc(-c3noc(C(F)(F)F)n3)cc2C1=O)[C@@H]1CCCO1 [Example 217, (2S)-N-((1S,2S)-2-(1-oxo-6-(5-(trifluoromethyl)-1,2,4-oxadiazol-3-yl)-1,3-dihydro-2H-isoindol-2-yl)cyclohexyl)tetrahydrofuran-2-carboxamide]
4 | – | – | – | 71% | 19% | -2% | O=C1NCC(C(=O)N[C@@H]2CCCC[C@H]2N2Cc3ccc(-c4noc(C(F)(F)F)n4)cc3C2=O)N1 (stereo partly drawn) [Example 109, 2-oxo-N-((1R,2R)-2-(1-oxo-6-(5-(trifluoromethyl)-1,2,4-oxadiazol-3-yl)-1,3-dihydro-2H-isoindol-2-yl)cyclohexyl)imidazolidine-4-carboxamide]
5 | 99% | 71% | 7% | – | – | – | CC(CO)(CCl)C(=O)N[C@@H]1CCCC[C@H]1N1Cc2ccc(-c3noc(C(F)(F)F)n3)cc2C1=O (relative stereo) [Example 204, 3-chloro-2-(hydroxymethyl)-2-methyl-N-(trans-2-(1-oxo-6-(5-(trifluoromethyl)-1,2,4-oxadiazol-3-yl)-1,3-dihydro-2H-isoindol-2-yl)cyclohexyl)propanamide]
6 | 77% | 47% | 1% | – | – | – | O=C1CCCN1[C@@H]1CCOC[C@H]1N1Cc2ccc(-c3noc(C(F)(F)F)n3)cc2C1=O [Example 183, 2-((3S,4R)-4-(2-oxopyrrolidin-1-yl)tetrahydro-2H-pyran-3-yl)-6-(5-(trifluoromethyl)-1,2,4-oxadiazol-3-yl)isoindolin-1-one]
7 | – | – | – | 99% | 47% | 5% | O=C(N[C@@H]1CCCC[C@H]1N1Cc2ccc(-c3noc(C(F)(F)F)n3)cc2C1=O)C1COC1 [Example 127, N-((1R,2R)-2-(1-oxo-6-(5-(trifluoromethyl)-1,2,4-oxadiazol-3-yl)-1,3-dihydro-2H-isoindol-2-yl)cyclohexyl)oxetane-3-carboxamide]
8 | – | – | – | 97% | 95% | 26% | O=C1CCCN1[C@@H]1CCCC[C@H]1N1Cc2ncc(-c3noc(C(F)(F)F)n3)cc2C1=O [Example 186, 6-((1R,2R)-2-(2-oxopyrrolidin-1-yl)cyclohexyl)-3-(5-(trifluoromethyl)-1,2,4-oxadiazol-3-yl)-6,7-dihydro-5H-pyrrolo[3,4-b]pyridin-5-one]
9 | – | – | – | 98% | 85% | 37% | O=C1c2cc(-c3noc(C(F)(F)F)n3)ccc2CN1[C@@H]1CCCC[C@H]1NS(=O)(=O)C1CC1 [Example 89, N-((1R,2R)-2-(1-oxo-6-(5-(trifluoromethyl)-1,2,4-oxadiazol-3-yl)-1,3-dihydro-2H-isoindol-2-yl)cyclohexyl) cyclopropanesulfonamide]
10 | – | – | – | 100% | 54% | 11% | O=C(NC1CC1)N[C@@H]1CCCC[C@H]1N1Cc2ccc(-c3noc(C(F)(F)F)n3)cc2C1=O [Example 154, 1-cyclopropyl-3-((1R,2R)-2-(1-oxo-6-(5-(trifluoromethyl)-1,2,4-oxadiazol-3-yl)-1,3-dihydro-2H-isoindol-2-yl)cyclohexyl)urea]
11 | – | – | 31% | 96% | 77% | – | O=C(N[C@H]1CCOC[C@H]1N1Cc2ccc(-c3noc(C(F)(F)F)n3)cc2C1=O)C1CC1(F)F (single isomer, unassigned) [Example 213, (1R) or (1S)-2,2-difluoro-N-((3S,4S)-3-(1-oxo-6-(5-(trifluoromethyl)-1,2,4-oxadiazol-3-yl)-1,3-dihydro-2H-isoindol-2-yl)tetrahydro-2H-pyran-4-yl)cyclopropanecarboxamide]
12 | – | – | – | 98% | 84% | 58% | CC(=O)N1CC[C@@H](N2Cc3ccc(-c4noc(C(F)(F)F)n4)cc3C2=O)[C@@H](c2ccccc2)C1 [Example 23, 2-((3S,4R)-1-acetyl-3-phenylpiperidin-4-yl)-6-(5-(trifluoromethyl)-1,2,4-oxadiazol-3-yl)isoindolin-1-one]
13 | – | – | – | 93% | 80% | 8% | CC(=O)N1CC[C@H](N2Cc3ccc(-c4noc(C(F)(F)F)n4)cc3C2=O)[C@H](c2ccccc2)C1 [Example 21, 2-((3R,4S)-1-acetyl-3-phenylpiperidin-4-yl)-6-(5-(trifluoromethyl)-1,2,4-oxadiazol-3-yl)isoindolin-1-one]
14 | 43% | 33% | −1% | – | – | – | O=C(N[C@@H]1CCOC[C@@H]1N1Cc2ccc(-c3noc(C(F)(F)F)n3)cc2C1=O)C1CC1(F)F (single isomer, unassigned) [Example 211, (1R) or (1S)-2,2-difluoro-N-((3R,4R)-3-(1-oxo-6-(5-(trifluoromethyl)-1,2,4-oxadiazol-3-yl)-1,3-dihydro-2H-isoindol-2-yl)tetrahydro-2H-pyran-4-yl)cyclopropanecarboxamide]
